Legend:
[1] = system: SDMA signal (PRMT5 inhibition) in HCT116 MTAP-deleted cells; test: Symmetric di-methyl arginine image-based high content screen assay (SDMA assay), HCT116 MTAP-deleted; format: cell-based; conditions: SDMA assay; for EC50: Homo sapiens, HCT-116, 72 h, 3 days of treatment, cell line not given, taken as HCT116 MTAP-deleted, read-out: EC50 (SDMA assay); for EC50 selectivity (SDMA assay): taken as HCT116 WT versus MTAP-deleted
Procedure, shortened: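 HCT116 MTAP-deleted cells treated with compound until Day 3, then formalin-fixed, permeabilized and immunostained for SDMA, with DAPI nuclear counterstain. Imaged by high-content microscopy; SDMA read-out is mean Alexa 488 intensity per DAPI-defined cell, reflecting PRMT5 inhibition.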

[2] = system: HCT116 MTAP-deleted cells; test: Cell viability assay (CellTiter-Glo, 7 days), HCT116 MTAP-deleted; conditions: Homo sapiens, HCT-116, 168 h

| EC50 [1] | EC50 selectivity (SDMA assay) [1] | Structure (SMILES) | CC50 [2] |
| --- | --- | --- | --- |
| < 1 nM | 92 | CC(=O)N(C)N(Cc1nc2ccc(F)cc2s1)C(=O)c1ccc2nc(N)c3cnn(C)c3c2c1 [Example 86, N′-Acetyl-4-amino-N-[(6-fluoro-1,3-benzothiazol-2-yl)methyl]-N′, 1-dimethyl-pyrazolo[4,3-c]quinoline-8-carbohydrazide] | < 100 nM |
| 1 to 5 nM | 104 | CC(=O)N(C)N(Cc1nc2cc(C(F)(F)F)ccc2s1)C(=O)c1cc2c(cc1Cl)nc(N)c1cnn(C)c12 [Example 87, N′-Acetyl-4-amino-7-chloro-N′,1-dimethyl-N-[[5-(trifluoromethyl)-1,3-benzothiazol-2-yl]methyl]pyrazolo[4,3-c]quinoline-8-carbohydrazide] | 100 to 1000 nM |
| > 5 nM | 221 | Cn1ncc2c(N)nc3ccc(C(=O)N(Cc4cn5cc(C#N)ccc5n4)N4CCCC4=O)cc3c21 [Example 88, 4-Amino-N-[(6-cyanoimidazo[1,2-a]pyridin-2-yl)methyl]-1-methyl-N-(2-oxopyrrolidin-1-yl)pyrazolo[4,3-c]quinoline-8-carboxamide] | 100 to 1000 nM |
| < 1 nM | 204 | Cn1ncc2c(N)nc3ccc(C(=O)N(Cc4nc5cc(C(F)(F)F)ccc5s4)N4CCOC4=O)cc3c21 [Example 89, 4-Amino-1-methyl-N-(2-oxooxazolidin-3-yl)-N-[[5-(trifluoromethyl)-1,3-benzothiazol-2-yl]methyl]pyrazolo[4,3-c]quinoline-8-carboxamide] | < 100 nM |
| 1 to 5 nM | 53 | Cn1ncc2c(N)nc3ccc(C(=O)N(Cc4cn5cc(F)ccc5n4)N4CCCCC4=O)cc3c21 [Example 90, 4-Amino-N-[(6-fluoroimidazo[1,2-a]pyridin-2-yl)methyl]-1-methyl-N-(2-oxo-1-piperidyl)pyrazolo[4,3-c]quinoline-8-carboxamide] | < 100 nM |
| 1 to 5 nM | 143 | CCC(=O)N(C)N(Cc1cn2cc(F)ccc2n1)C(=O)c1ccc2nc(N)c3cnn(C)c3c2c1 [Example 91, 4-Amino-N-[(6-fluoroimidazo[1,2-a]pyridin-2-yl)methyl]-N′,1-dimethyl-N′-propanoyl-pyrazolo[4,3-c]quinoline-8-carbohydrazide] | < 100 nM |
| < 1 nM | 257 | CC(=O)N(C)N(Cc1nc2cc(F)ccc2s1)C(=O)c1ccc2nc(N)c3cnn(C)c3c2c1 [Example 92, N′-Acetyl-4-amino-N-[(5-fluoro-1,3-benzothiazol-2-yl)methyl]-N′,1-dimethyl-pyrazolo[4,3-c]quinoline-8-carbohydrazide] | < 100 nM |
| < 1 nM | 226 | Cn1ncc2c(N)nc3ccc(C(=O)N(Cc4nc5cc(Cl)ccc5s4)N4CCCCC4=O)cc3c21 [Example 93, 4-amino-N-[(5-chloro-1,3-benzothiazol-2-yl)methyl]-1-methyl-N-(2-oxo-1-piperidyl)pyrazolo[4,3-c]quinoline-8-carboxamide] | < 100 nM |
| < 1 nM | 133 | Cn1ncc2c(N)nc3ccc(C(=O)N(Cc4cc5ccccn5n4)N4CCCCC4=O)cc3c21 [Example 94, 4-amino-1-methyl-N-(2-oxo-1-piperidyl)-N-(pyrazolo[1,5-a]pyridin-2-ylmethyl)pyrazolo[4,3-c]quinoline-8-carboxamide] | < 100 nM |
| < 1 nM | 205 | Cn1ncc2c(N)nc3ccc(C(=O)N(Cc4ccc5nsnc5c4)N4CCCC4=O)cc3c21 [Example 95, 4-amino-N-(2,1,3-benzothiadiazol-5-ylmethyl)-1-methyl-N-(2-oxopyrrolidin-1-yl)pyrazolo[4,3-c]quinoline-8-carboxamide] | < 100 nM |

From patent US20240254118A1, “PRMT5 INHIBITORS AND USES THEREOF” (Gilead Sciences, Inc., priority 2022, published 2024)
